# “Also recorded” adds a separate entry of the source.
# Tests used:
# [1] = tested on: Jurkat cells; assay: Cell viability assay (CELLTITER 96 AQUEOUS One) in Jurkat cells; type: cell-based, human; details: NU7441 at varying concentrations, 48 hours
# Protocol: Cell Culture: Human peripheral blood mononuclear cells (PBMC,) and Jurkat cells were purchased from ATCC (PCS-800-011, Manassas, VA). Cells were maintained at 37° C. in a humidified atmosphere composed of 5% CO2. Jurkat cells were cultured in RPMI 1640 medium which was supplemented with 10% FCS and human PBMC was cultured in RPMI 1640 medium which was supplemented with 10% FCS and pen/strep. Both Jurkat cells and PBMC were stimulated with PHA (50 ng/mL) and PMA (1 μg/mL) for 24 hours prior to harvesting for IL-2 detection or 6 hours prior for western blot analysis. The NU7441 DNA-PKcs inhibitor was added at varying concentrations at the time of stimulation. Cell viability assay: Cell viability assay was performed using Promega CELLTITER 96 AQUEOUS One Solution Cell Proliferation Assay (Madison, WI) and following the manufacturer's protocol. Briefly, 100 μL of PBMC or Jurkat cells were plated in a 96-well plate and treated with various concentration of NU7441 for 48 hours. CELLTITER solution (20 μL/100 μL of cell suspension) was added to the cells and the plate was incubated for 3 hours at 37° C. and the absorbance at 490 nm was recorded using SynergyHTX (BioTek, Winooski, VT) plate reader.
# [2] = tested on: IL-2; assay: Secreted IL-2 ELISA, Jurkat cells stimulated with anti-CD28/CD3 dynabeads; type: cell-based, human; details: anti-CD28/CD3 dynabeads 1:1 ratio, 24 hours
# Protocol: Detection of secreted IL-2: Secreted IL-2 was detected by Human IL-2 ELISA Kit from Thermo Scientific (Waltham, MA). The manufacturer's protocol was followed. Prior to harvesting, cells were treated with PHA (50 ng/ml) and PMA (1 μg/mL) for 24 hours with or without the NU7441 inhibitor. Jurkat cells stimulated with the anti-CD28/CD3 dynabeads were done so according to the manufacturer's protocol at a 1:1 ratio for 24 hours prior to harvesting. After stimulation, supernatant samples of Jurkat cells or PBMCs (2 million cells/mL) were collected and diluted 10 times before the assay. IL-2 standards and samples (50 μL) and Biotinylated antibody reagents (50 μL) were added to each well and the plate was incubated for 3 hours at room temperature. The plate was washed 3 times and 100 μL of Streptavidin-HRP solution was added. After 30 minutes of incubation at room temperature, the plate was washed 3 times. TMB substrate (100 μL) was added and incubated for 30 minutes in the dark at room temperature. Stop solution was added and the absorbance of each well was read at 450 nm using the plate reader.
# [3] = tested on: IL-2; assay: Secreted IL-2 ELISA, PBMCs stimulated with PHA+PMA; type: cell-based, human; details: PBMC, activation with PMA+PHA
# Protocol: Cell Culture: Human peripheral blood mononuclear cells (PBMC,) and Jurkat cells were purchased from ATCC (PCS-800-011, Manassas, VA). Cells were maintained at 37° C. in a humidified atmosphere composed of 5% CO2. Jurkat cells were cultured in RPMI 1640 medium which was supplemented with 10% FCS and human PBMC was cultured in RPMI 1640 medium which was supplemented with 10% FCS and pen/strep. Both Jurkat cells and PBMC were stimulated with PHA (50 ng/mL) and PMA (1 μg/mL) for 24 hours prior to harvesting for IL-2 detection or 6 hours prior for western blot analysis. The NU7441 DNA-PKcs inhibitor was added at varying concentrations at the time of stimulation. Detection of secreted IL-2: Secreted IL-2 was detected by Human IL-2 ELISA Kit from Thermo Scientific (Waltham, MA). The manufacturer's protocol was followed. Prior to harvesting, cells were treated with PHA (50 ng/ml) and PMA (1 μg/mL) for 24 hours with or without the NU7441 inhibitor. Jurkat cells stimulated with the anti-CD28/CD3 dynabeads were done so according to the manufacturer's protocol at a 1:1 ratio for 24 hours prior to harvesting. After stimulation, supernatant samples of Jurkat cells or PBMCs (2 million cells/mL) were collected and diluted 10 times before the assay. […] Stop solution was added and the absorbance of each well was read at 450 nm using the plate reader.
# [4] = tested on: NFAT; assay: Immunofluorescence of NFAT nuclear translocation in Jurkat cells; type: cell-based, human; design: dose or concentration left out as unconfirmed; details: Jurkat activated with PMA+PHA, inhibitor
# Protocol: Immunofluorescence of NFAT: Jurkat cells were plated in poly-lysine treated 35 mm dish with glass-bottom (BioTek) overnight. The cells were fixed with 4% formaldehyde and permeabilized with permeabilization solution (0.2% TRITON X-100+OVA solution (0.1 mg/mL), 0.01% sodium azide). NFAT was probed with anti-NFAT2 (ab2796, Abcam) in permeabilization solution overnight at 4° C., and then washed with PBS. Fluorescein (FITC)-conjugated AffiniPure Donkey Anti-Mouse IgG (715-095-151, Jackson ImmunoResearch) was applied to the cells for 1 hour at room temperature. The cells were washed with PBS and ProLong Antifade reagent with DAPI (Molecular Probes) was applied. All samples were analyzed on an Olympus Fluoview FV1000 laser confocal microscope. Images from all microscopy experiments were processed using the FV10-ASW 3.1 Viewer (Olympus).
# [5] = tested on: IL-2; assay: qPCR of IL-2 expression in stimulated Jurkat cells; type: cell-based, human; details: PHA+PMA stimulation
# Protocol: Evaluation of PD-1 and IL-2 expression: The effect of NU7441 on the expression of PD-1, a protein with immunosuppressant function, and IL-2 was examined in Jurkat cells following stimulation with PHA+PMA and treatment with the inhibitor NU7441. qPCR analysis was performed using primers specific for PD1 and IL-2 sequences.
# [6] = tested on: Th17 T cells; assay: qPCR on T cell markers, Th17 differentiation of naïve CD4+ T cells; type: cell-based; details: naïve CD4+ T cells from mouse spleens
# Protocol: qPCR on T cell markers: Naïve CD4+ T cells were isolated by standard methods from the spleens of Balbc mice. T cells were grown in culture and treated with cytokines specific for differentiate into Th1 and Th17 subtypes. Additionally, T cells were cultured with NU7441 and FK506. qPCR was performed looking at the following markers: Batf3, RORyt, IL17, IL22, TGFBeta, Lymphotoxin, T-Bet.
compound,measurement,setting,value
O=c1cc(N2CCOCC2)oc2c(-c3cccc4c3sc3ccccc34)cccc12 [NU7441],viability of Jurkat cells,[1],did not alter the viability; also recorded: no significant reduction in viability
same,IL-2 production,[2],significantly blocked IL-2 production; also recorded: inhibited
same,level of IL-2 produced,[3],significantly reduce IL-2 production
same,nuclear localization of NFAT,[4],nuclear localization was prevented; also recorded: blocked translocation of NFAT to the nucleus
same,IL-2 expression,[5],reduced
same,"Th17 differentiation (markers Batf3, RoRyt, IL22, TGFBeta, IL17)",[6],suppressing a Th17 environment
